According to patent EP4818178A1, “PREPARATION AND USE OF PYRIMIDOTHIOPYRANONE KRAS MUTANT PROTEIN INHIBITOR” (Ya Therapeutics Inc, priority 2024, dated 2025):

Molecular target: KRasG12D (Homo sapiens, UniProt P01116, G12D)
Assay: KRAS inhibitory activity test, TR-FRET (inhibition of binding of KRasG12D to GTP, SOS/GTP nucleotide exchange)
Type: biochemical
Conditions: read-out: IC50 values of the compounds for inhibiting KRAS enzymes, G12D
Experimental: • 1. […] Reagent Preparation: • a. Storage Reagents:
Prepare a 1L solution by mixing 20mL of 1000mM HEPES, 20mL of 500mM EDTA, 10mL of 5M sodium chloride, 0.1mL of 100% Tween 20, and 949.9mL of water. Sterilize by filtration and store at 4°C.
Prepare a 1L solution by mixing 20mL of 1000mM HEPES, 10mL of 1000mM magnesium chloride, 30mL of 5M sodium chloride, 0.05mL of 100% Tween 20, and 939.95mL of water. Sterilize by filtration and store at 4°C. 3) KRAS/Bodipy GDP/Tb-SA Mixture: Mix 9.5 µL of 95 µM KRasG12D protein with 440.5 µL of KRAS nucleotide exchange buffer. Incubate at room temperature for 1 hour. Then, mix with 8.4 µL of 17.9 µM Tb-SA, 1.8 µL of 5 mM Bodipy GDP, and 9539.8 µL of KRAS experimental buffer to prepare […]. After mixing, incubate at room temperature for 6 hours and store at -80°C.
• 1) KRAS Enzyme Solution: Mix 73.3 µL of KRAS/Bodipy GDP/Tb-SA mixture with 2126.7 µL of KRAS experimental buffer to prepare a 2200 µL solution. • 2) SOS/GTP Mixture
c. Experimental Procedure: Mix 1.59 µL of 166 µM SOS protein with 198 µL of 100 mM... GTP and 0.41 µL KRAS buffer were prepared to a 2200 µL solution. The stock solution concentration of the control compound was 1 mM, and the stock solution concentration of the test compound was 10 mM. 9 µL of the control compound and the test compound were transferred to a 384-LDV plate. The compound on the LDV plate was 3-fold diluted 10-point using Bravo. 9 nL of the compound on the LDV plate was transferred to the experimental plate using ECHO. 3 µL of a 3 nM Kras/0.5 nM TB-SA/30 nM BodipyGDP mixture and 3 µL of Ras buffer were added to each well of the experimental plate using a Dragonfly autopilot. The plate was centrifuged at 1000 rpm for 1 minute. The plate was incubated at room temperature for 1 hour. 3 µL of 120 nM SOS/9 mM KRAS buffer was added to each well of the experimental plate using a Dragonfly autopilot. The […] was centrifuged at 1000 rpm for 1 minute; the plate was incubated at room temperature for 1 hour; the plate was read and the data were recorded using Envision; the data were analyzed using Excel and Xlfit to calculate the IC50of the test compound. "++++" indicates IC50≤ 10 nM; "+++" indicates 10 nM < IC50≤ 100 nM; "++" indicates 100 nM < IC50≤ 2000 nM; "+" indicates 2000 nM < IC50.

Sequence of KRasG12D (P01116 1-188 isoform P01116-2 G12D): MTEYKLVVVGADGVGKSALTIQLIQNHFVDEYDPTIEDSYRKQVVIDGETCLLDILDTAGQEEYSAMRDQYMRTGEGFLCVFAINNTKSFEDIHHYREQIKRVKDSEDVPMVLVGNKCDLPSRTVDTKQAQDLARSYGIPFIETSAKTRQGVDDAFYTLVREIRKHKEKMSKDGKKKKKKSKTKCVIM

Compound | IC50 [nM]
Cc1cc(N)nc([C@H]2Cc3nc(OC[C@@]45CCCN4C[C@H](F)C5)nc(N4C[C@H]5CC[C@@H](C4)N5)c3CS2(=O)=O)c1C(F)(F)F [Compound 3B, (7R)-7-(6-amino-4-methyl-3-(trifluoromethyl)pyridin-2-yl)-4-((1R,5S)-3,8-diazabicyclo[3.2.1]octane-3-yl)-2-(((2R,7AS)-2-fluorotetrahydro-1H-pyrrolazin-7a(5H)-yl)methoxy)-7,8-dihydro-5H-thiopyrano[4,3-d]pyrimidine 6,6-Dioxide] | ≤ 10
Cc1cc(N)c(F)c([C@@H]2Cc3nc(OC[C@@]45CCCN4C[C@H](F)C5)nc(N4C[C@H]5CC[C@@H](C4)N5)c3CS2(=O)=O)c1C(F)(F)F [Compound 33A, (7S)-7-(3-amino-2-fluoro-5-methyl-6-(trifluoromethyl)phenyl)-4-((1R,5S)-3,8-diazabicyclo[3.2.1]octane-3-yl)-2-(((2R,7AS)-2-fluorotetrahydro-1H-pyrrolazin-7a(5H)-yl)methoxy)-7,8-dihydro-5H-thiopyrano[4,3-d]pyrimidine 6,6-Dioxide] | ≤ 10
Cc1cc(N)c(F)c([C@@H]2Cc3nc(OC[C@@]45CCCN4CC(=C(F)F)C5)nc(N4CC5CCC(C4)N5)c3CS2(=O)=O)c1C(F)(F)F [Compound 9A, (7S)-7-(3-amino-2-fluoro-5-methyl-6-(trifluoromethyl)phenyl)-4-(3,8-diazabicyclo[3. 2.1]octane-3-yl)-2-(((S)-2-(difluoromethylene)tetrahydro-1H-pyrrolazin-7a(5H)-yl)methoxy)-7,8-dihydro-5H-thiopyrano[4,3-d]pyrimidine-6,6-dioxide] | ≤ 10
Cc1cc(O)c(F)c([C@@H]2Cc3nc(OC[C@@]45CCCN4C[C@H](F)C5)nc(N4CCC[C@@](C)(O)C4)c3CS2(=O)=O)c1C(F)(F)F [Compound 6A, (7S)-7-(2-fluoro-3-hydroxy-5-methyl-6-(trifluoromethyl)phenyl)-2-(((2R,7AS)-2-fluorotetrahydro-1H-pyrrolazin-7a(5H)-yl)methoxy)-4-((R)-3-hydroxy-3-methylpiperidin-1-yl)-7,8-dihydro-5H-thiopyrano[4,3-d]pyrimidine-6,6-dioxide] | ≤ 10
C=C1CN2CCC[C@@]2(COc2nc3c(c(N4CC5CCC(C4)N5)n2)CS(=O)(=O)[C@H](c2c(F)c(N)cc(C#CC)c2C(F)(F)F)C3)C1 [Compound 22A, (7S)-7-(3-amino-2-fluoro-5-(prop-1-yn-1-yl)-6-(trifluoromethyl)phenyl)-4-(3,8-diazabicyclo[3.2.1]octane-3-yl)-2-(((S)-2-(methylene)tetrahydro-1H-pyrrolazin-7a(5H)-yl)methoxy)-7,8-dihydro-5H-thiopyrano[4,3-d]pyrimidine-6,6-dioxide] | ≤ 10
Cc1cc(N)nc(C2Cc3nc(OC[C@@]45CCCN4CC(=C(F)F)C5)nc(N4CC5CCC(C4)N5)c3CS2(=O)=O)c1C(F)(F)F (stereo partly drawn) [Compound 18, 7-(6-amino-4-methyl-3-(trifluoromethyl)pyridin-2-yl)-2-(((S)-2-(difluoromethylene)tetrahydro-1H-pyrrolazin-7a(5H)-yl)methoxy)-4-(3,8-diazabicyclo[3.2.1]octane-3-yl)-7,8-dihydro-5H-thiopyrano[4,3-d]pyrimidine-6,6-dioxide] | ≤ 10
CC#Cc1cc(N)cc(C2Cc3nc(OC[C@@]45CCCN4C/C(=C\F)C5)nc(N4CC5CCC(C4)N5)c3CS2(=O)=O)c1C(F)(F)F (some centres unmarked) [Compound 32] | ≤ 10
C=C1CN2CCC[C@@]2(COc2nc3c(c(N4CC5CCC(C4)N5)n2)CS(=O)(=O)[C@H](c2c(F)c(N)cc(C)c2C(F)(F)F)C3)C1 [Compound 11A, (7S)-7-(3-amino-2-fluoro-5-methyl-6-(trifluoromethyl)phenyl)-4-(3,8-diazabicyclo[3. 2.1]octane-3-yl)-2-(((S)-2-(methylene)tetrahydro-1H-pyrrolazin-7a(5H)-yl)methoxy)-7,8-dihydro-5H-thiopyrano[4,3-d]pyrimidine-6,6-dioxide] | ≤ 10
